Series [1] in a line: Pharmacokinetics from capillary blood collected with Mitra VAMS (vMPA, vMPAG). Conditions: for Cmax / Tmax: pediatric renal transplant recipients (n = 20) on MMF, mean (range); for AUC(0–4) Normalized to Drug Dose: normalized to MMF dose. In kind it is in vivo, human. How it is done:
The AUC0–4, Tmax, and Cmax parameters were calculated using the R (version 4.5.1) package software (R Core Team, 2025), supported by RStudio (version 2025.05.1+513) from Posit PBC software (Boston, MA, USA). […] The vMPA and vMPAG capillary blood levels were corrected using formulas validated in our department (partially published by Kocur et al.) and expressed as estimated capillary plasma concentrations. […] Individual PK profiles for each patient included in the study are provided in the Supplementary File (Figures S4 and S5).
Subsequently, the tip (after at least 1 h of drying) was placed in an 1.5 mL Eppendorf-type test tube (Eppendorf AG, Hamburg, Germany) containing 150 μL of pure deionized water. Next, the test tube was shaken at room temperature for 1 h using the automatic rotary vortex. Subsequently, 10 μL of IS solution and 150 μL of the precipitation mixture were added. The sample was then processed as described in Section 4.3.4. Sample processing was carried out at the Department of Drug Chemistry, Pharmaceutical and Biomedical Analysis, Medical University of Warsaw, Poland [21].
From each patient (if they consented to all sampling types), four samples were collected simultaneously at all defined time points of the dynamic PK profile (0, 0.5, 1, 2, and 4 h after drug administration). Whole blood was collected using standard venipuncture by a phlebotomist into a K3-EDTA test tube (Sarstedt, Nümbrecht, Germany). Plasma for analytical determination was obtained by centrifuging a portion of the whole blood and stored at −40 °C until assay. At the same time, 10 µL capillary blood samples were collected from a finger prick using the Mitra™ device (VAMS samples were stored in light-protected aluminum zip bags with desiccant at room temperature).

A short description of series [2]: Stability of analytes in dried saliva Mitra VAMS tips. The series is classed as physicochemical. Conditions: n=6; for recovery at 1 week / recovery at 2 weeks / recovery at 24 hours / recovery at 3 days: dried saliva on Mitra VAMS tips, room temperature (light-protected with desiccant); for stability, mean recovery: room temperature (with daily light exposure). Here is the method: Stability testing, a crucial component of method development and validation, was conducted through various experiments, including storage stability in the autosampler and stability of analytes in VAMS tips under different stress conditions. Analyte stability is deemed acceptable if the differences stay within the nominal range of ±15%. Additionally, the reproducibility of the injection was assessed during autosampler stability testing.

Read-outs that look alike come from different tables or passages of the source. Marks after values point to notes of the source that are not given here.

The AUC(0-t) is exposure summed from dosing to a finite time, without extrapolation to infinity. Turning to `COc1c(C)c2c(c(O)c1C/C=C(\C)CCC(=O)O)C(=O)OC2` [MPA, Mycophenolic acid], the concentration at 0 h in series [1] (human, 0 h (pre-dose), n = 20, mean ± SD, read-out: C0 concentration) worked out at 1800 ± 1300 ng/mL. In series [1] (human, 0.5 h post-dose, n = 20, mean ± SD, read-out: C0.5 concentration), the concentration at 0.5 h is 9660 ± 8960 ng/mL. In addition, in series [1] (human, 1 h post-dose, n = 20, mean ± SD, read-out: C1 concentration), the concentration at 1 h was determined as 10100 ± 5970 ng/mL. The concentration at 2 h in series [1] (human, 2 h post-dose, n = 20, mean ± SD, read-out: C2 concentration) came out at 4430 ± 3000 ng/mL. Besides, in series [1] (human, 4 h post-dose, n = 20, mean ± SD, read-out: C4 concentration), the concentration at 4 h was determined as 1770 ± 2010 ng/mL. Further, in series [1] (human, corrected to estimated capillary plasma concentration, n = 20, mean (range)), the AUC(0-t) is 21400 ng·h/mL. In addition, the Cmax in series [1] (human, corrected to estimated capillary plasma concentration, read-out: Cmax) was 12900 ng/mL. In addition, the Tmax in series [1] (human, read-out: Tmax) was determined as 46.8 min. The “AUC(0–4) Normalized to Drug Dose” value in series [1] (n = 20, mean (range)) was 68.95 (20.71–444.79) ^d mg × h/mL × g. Further, the recovery at 1 week was 97.2% in series [2] (HQC, 1 week) and 98% in series [2] (LQC, 1 week). Further, the recovery at 2 weeks in series [2] (HQC, 2 weeks) worked out at 96%; in series [2] (LQC, 2 weeks) it was 95.6%. Also, the recovery at 24 hours in series [2] (HQC, 24 hours) stood at 99.9%; in series [2] (LQC, 24 hours), 101%. Moreover, the recovery at 3 days in series [2] (HQC, 3 days) was found to be 100%; in series [2] (LQC, 3 days) it was 99.1%.
Regarding `COc1c(C)c2c(c(O[C@@H]3O[C@H](C(=O)O)[C@@H](O)[C@H](O)[C@H]3O)c1C/C=C(\C)CCC(=O)O)C(=O)OC2` [MPAG, mycophenolic acid glucuronide], the C0 concentration in series [1] (0 h (pre-dose), n = 20, mean ± SD) stood at 22481 ± 10350 ng/mL. In series [1] (0.5 h post-dose, n = 20, mean ± SD), this molecule displayed a C0.5 concentration of 34340 ± 14354 ng/mL. This molecule had a C1 concentration in series [1] (1 h post-dose, n = 20, mean ± SD) of 44.003 ± 20.520 mg/L. This molecule yielded a C2 concentration in series [1] (2 h post-dose, n = 20, mean ± SD) of 34.039 ± 12.356 mg/L. The same molecule returned a C4 concentration in series [1] (4 h post-dose, n = 20, mean ± SD) of 25.381 ± 11.908 mg/L. In addition, the AUC(0–4) in series [1] (corrected to estimated capillary plasma concentration, n = 20, mean (range)) is 133000 ng·h/mL. In series [1] (corrected to estimated capillary plasma concentration), the Cmax is given as 47.73 (19.80–110.76) mg/L. Further, in series [1] (n = 20, mean (range)), the “AUC(0–4) Normalized to Drug Dose” value is listed as 361.35 (100.49–1064.33) ^d mg × h/mL × g. Further, the Tmax in series [1] is 1.38 (0.50–2.00) h. In addition, the “stability, mean recovery” value in series [2] (HQC, 1 week) came out at 96.66%; in series [2] (HQC, 2 weeks), 94.51%; in series [2] (HQC, 24 hours) it was 100.16%; in series [2] (HQC, 3 days), 98.94%; in series [2] (LQC, 1 week) it was 99.67%; in series [2] (LQC, 2 weeks), 97.25%. Moreover, the “stability, mean recovery” value in series [2] (LQC, 24 hours) is given as 103.15%; in series [2] (LQC, 3 days), 100.46%.

The record behind these values is publication PMC12655819 (Pharmaceuticals, 2025).
